This note sets out measurements from patent publication US20140179664A1, “Heterocyclyl Pyrimidine Analogues As JAK Inhibitors” (Cellzome Limited, priority 2011, published 2014).

In test [1] the target is T1, JAK2 (Homo sapiens, UniProt O60674).
T1 construct: endogenous in cells; host or cells: Molt4 (ATCC CRL-1582) and Ramos (ATCC CRL-1596), mixed lysate 1:2
Description: Kinobeads assay, JAK2. The format is binding. To be noted: mixed Molt4/Ramos lysate, read-out: Inhibition values (IC50) JAK2. On the procedure: (§1) The compounds of the present invention as described in the previous examples were tested in a Kinobeads™ assay as described for ZAP-70 (WO-A 2007/137867). Briefly, test compounds (at various concentrations) and the affinity matrix with the immobilized aminopyrido-pyrimidine ligand 24 were added to cell lysate aliquots and allowed to bind to the proteins in the lysate sample. After the incubation time the beads with captured proteins were separated from the lysate. Bound proteins were then eluted and the presence of JAK1, JAK2, JAK3 and TYK2 was detected and quantified using specific antibodies in a dot blot procedure and the Odyssey infrared detection system. Dose response curves for individual kinases were generated and IC50 values calculated. Kinobeads™ assays for ZAP-70 (WO-A 2007/137867) and for kinase selectivity profiling (WO-A 2006/134056) have been previously described.
(§2) The affinity matrix was washed two times with 15 mL of lx DP buffer containing 0.2% NP40 (IGEPAL® CA-630, Sigma, #13021) and then resuspended in 1×DP buffer containing 0.2% NP40 (3% beads slurry).
(§3) 5×DP buffer: 250 mM Tris-HCl pH 7.4, 25% Glycerol, 7.5 mM MgCl2, 750 mM NaCl, 5 mM Na3VO4; filter the 5×DP buffer through a 0.22 μm filter and store in aliquots at −80° C. The 5×DP buffer is diluted with H2O to 1×DP buffer containing 1 mM DTT and 25 mM NaF.
(§4) Stock solutions of test compounds were prepared in DMSO. In a 96 well plate […] solution of diluted test compounds at 5 mM in DMSO were prepared. Starting with this solution a 1:3 dilution series (9 steps) was prepared. For control experiments (no test compound) a buffer containing 2% DMSO was used.
(§5) Molt4 cells (ATCC catalogue number CRL-1582) and Ramos cells (ATCC catalogue number CRL-1596) were grown in 1 L Spinner flasks (Integra Biosciences, #182101) in suspension in RPMI 1640 medium (Invitrogen, #21875-034) supplemented with 10% Fetal Bovine Serum (Invitrogen) at a density between 0.15×10^6 and 1.2×10^6 cells/mL. Cells were harvested by centrifugation, washed once with 1×PBS buffer (Invitrogen, #14190-094) and cell pellets were frozen in liquid nitrogen and subsequently stored at −80° C. Cells were homogenized in a Potter S homogenizer in lysis buffer: 50 mM Tris-HCl, 0.8% NP40, 5% glycerol, 150 mM NaCl, 1.5 mM MgCl2, 25 mM NaF, 1 mM sodium vanadate, 1 mM DTT, pH 7.5. One complete EDTA-free tablet (protease inhibitor cocktail, Roche Diagnostics, 1873580) per 25 mL buffer was added. The material was dounced 10 times using a mechanized POTTER S, transferred to 50 mL falcon tubes, incubated for 30 minutes on ice and spun down for 10 minutes at 20,000 g at 4° C. (10,000 rpm in Sorvall SLA600, precooled). The supernatant was transferred to an ultracentrifuge (UZ)-polycarbonate tube (Beckmann, 355654) and spun for 1 hour at 100.000 g at 4° C. (33.500 rpm in Ti50.2, precooled). The supernatant was transferred again to a fresh 50 mL falcon tube, the protein concentration was determined by a Bradford assay (BioRad) and samples containing 50 mg of protein per aliquot were prepared. The samples were immediately used for experiments or frozen in liquid nitrogen and stored frozen at −80° C.
(§6) Cell lysate (approximately 50 mg protein per plate) was thawed in a water bath at room temperature and then stored on ice. To the thawed cell lysate 1×DP 0.8% NP40 buffer containing protease inhibitors (1 tablet for 25 mL buffer; EDTA-free protease inhibitor cocktail; Roche Diagnostics 1873580) was added in order to reach a final protein concentration of 10 mg/mL total protein. The diluted cell lysate was stored on ice. Mixed Molt4/Ramos lysate was prepared by combining one volume of Molt4 lysate and two volumes of Ramos lysate (ratio 1:2).
(§7) To a 96 well filter plate (Multiscreen HTS, BV Filter Plates, Millipore #MSBVN1250) were added per well: 100 μL affinity matrix (3% beads slurry), […], of compound solution, and 50 μL of diluted lysate. […]

The target of test [2] is T2, JAK3 (Homo sapiens, UniProt P52333).
T2 construct: endogenous in cells; host or cells: Molt4 (ATCC CRL-1582) and Ramos (ATCC CRL-1596), mixed lysate 1:2
T2 sequence (P52333 1-1124): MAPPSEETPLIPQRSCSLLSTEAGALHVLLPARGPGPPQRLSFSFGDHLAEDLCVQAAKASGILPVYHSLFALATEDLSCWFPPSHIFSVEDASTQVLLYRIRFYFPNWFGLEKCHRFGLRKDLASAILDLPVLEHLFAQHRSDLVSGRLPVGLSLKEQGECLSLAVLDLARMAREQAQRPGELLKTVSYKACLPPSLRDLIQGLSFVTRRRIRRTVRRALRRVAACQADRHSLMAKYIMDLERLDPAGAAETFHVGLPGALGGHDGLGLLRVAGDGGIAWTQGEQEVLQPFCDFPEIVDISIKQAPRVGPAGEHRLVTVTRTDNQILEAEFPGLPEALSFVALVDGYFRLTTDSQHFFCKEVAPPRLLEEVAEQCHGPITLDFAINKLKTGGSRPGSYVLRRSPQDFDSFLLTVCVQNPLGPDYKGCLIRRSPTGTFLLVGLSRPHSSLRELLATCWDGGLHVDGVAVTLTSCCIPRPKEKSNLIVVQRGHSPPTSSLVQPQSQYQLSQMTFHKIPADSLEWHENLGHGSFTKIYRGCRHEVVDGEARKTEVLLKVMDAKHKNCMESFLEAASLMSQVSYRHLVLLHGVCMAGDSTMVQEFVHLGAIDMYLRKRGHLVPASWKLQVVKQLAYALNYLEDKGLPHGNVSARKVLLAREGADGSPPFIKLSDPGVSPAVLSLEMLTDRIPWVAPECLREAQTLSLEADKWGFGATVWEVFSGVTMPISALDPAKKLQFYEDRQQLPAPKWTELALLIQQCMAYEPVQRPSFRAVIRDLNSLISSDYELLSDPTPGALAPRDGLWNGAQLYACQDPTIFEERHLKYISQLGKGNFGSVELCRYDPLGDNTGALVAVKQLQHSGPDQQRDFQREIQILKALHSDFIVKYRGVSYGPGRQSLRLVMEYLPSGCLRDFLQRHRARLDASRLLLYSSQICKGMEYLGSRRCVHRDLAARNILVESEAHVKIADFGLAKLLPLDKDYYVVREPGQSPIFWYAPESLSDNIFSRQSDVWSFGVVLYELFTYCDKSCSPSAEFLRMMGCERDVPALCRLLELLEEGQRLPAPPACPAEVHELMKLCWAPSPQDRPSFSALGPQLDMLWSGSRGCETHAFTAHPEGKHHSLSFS
As to the kind of experiment: Kinobeads assay, JAK3. To be noted: mixed Molt4/Ramos lysate, read-out: Inhibition values (IC50) JAK3. The class given is binding. On the procedure:
as §1, §2, §3, §4, §5, §6, §7

T1 sequence (O60674 whole entry): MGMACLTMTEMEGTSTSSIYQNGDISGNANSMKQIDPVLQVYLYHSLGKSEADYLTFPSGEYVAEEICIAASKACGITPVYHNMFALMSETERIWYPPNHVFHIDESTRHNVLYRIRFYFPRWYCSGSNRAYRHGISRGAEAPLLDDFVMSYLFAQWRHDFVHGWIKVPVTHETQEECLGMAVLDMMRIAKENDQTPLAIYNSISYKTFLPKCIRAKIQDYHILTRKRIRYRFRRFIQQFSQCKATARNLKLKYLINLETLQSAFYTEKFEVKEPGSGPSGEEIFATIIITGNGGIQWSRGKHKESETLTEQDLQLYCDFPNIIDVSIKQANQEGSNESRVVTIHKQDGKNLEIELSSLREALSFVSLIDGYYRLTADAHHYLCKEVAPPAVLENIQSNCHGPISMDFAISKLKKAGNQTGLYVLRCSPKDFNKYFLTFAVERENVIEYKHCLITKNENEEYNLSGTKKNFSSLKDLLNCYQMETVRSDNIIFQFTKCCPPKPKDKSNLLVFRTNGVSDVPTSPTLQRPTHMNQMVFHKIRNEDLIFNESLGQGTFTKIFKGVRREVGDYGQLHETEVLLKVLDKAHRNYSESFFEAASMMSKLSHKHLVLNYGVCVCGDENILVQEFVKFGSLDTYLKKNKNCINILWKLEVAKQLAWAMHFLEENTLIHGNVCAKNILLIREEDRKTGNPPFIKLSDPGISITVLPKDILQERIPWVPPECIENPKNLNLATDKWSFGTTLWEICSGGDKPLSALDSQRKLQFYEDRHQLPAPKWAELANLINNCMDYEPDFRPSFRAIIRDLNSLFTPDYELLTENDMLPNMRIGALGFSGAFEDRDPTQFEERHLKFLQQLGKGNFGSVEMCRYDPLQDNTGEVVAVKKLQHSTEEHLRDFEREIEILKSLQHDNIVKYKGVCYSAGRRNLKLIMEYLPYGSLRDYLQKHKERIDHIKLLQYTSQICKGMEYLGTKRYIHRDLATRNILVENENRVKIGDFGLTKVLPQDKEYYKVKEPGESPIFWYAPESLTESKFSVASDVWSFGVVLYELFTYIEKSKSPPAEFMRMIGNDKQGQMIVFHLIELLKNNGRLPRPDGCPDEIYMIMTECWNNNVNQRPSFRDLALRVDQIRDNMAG

In the case of `CN(C)C(=O)C(Nc1nc(Nc2cnn(CCO)c2)ncc1Cl)c1ccccc1F` (centres unmarked) [Compound 127], the IC50 in test [1] is 1000 to 10000 nM; in test [2], 100 to 1000 nM.

`Cn1cc(Nc2ncc(F)c(N[C@H](CO)c3cc(F)ccc3F)n2)cn1` [Compound 146]: the half-inhibitory concentration (IC50) in test [1] was 1000 to 10000 nM; in test [2], less than 100 nM.

In the case of `Cc1cnc(Nc2cnn(C)c2)nc1N[C@H](CO)c1cc(F)cc(F)c1` [Compound 164], the half-inhibitory concentration (IC50) in test [1] was 1000 to 10000 nM; in test [2], 100 to 1000 nM.

For the molecule `Cn1cc(Nc2ncc(Cl)c(N[C@H](CO)c3cccc(N4CCOCC4=O)c3)n2)cn1` [Compound 138], the IC50 in test [1] was not below 10000 nM; in test [2] it was less than 100 nM.

As for `CNC(=O)Cn1cc(Nc2ncc(Cl)c(N[C@H](CO)c3cccc(OC)c3)n2)cn1` [Compound 99], the IC50 is not below 10000 nM in test [1] and less than 100 nM in test [2].

For `Cn1cc(Nc2ncc(F)c(N[C@H](CO)c3cc(F)cc(-c4cnn(C)c4)c3)n2)cn1` [Compound 150], the concentration for half-maximal inhibition (IC50) is not below 10000 nM in test [1] and 100 to 1000 nM in test [2].

As for `Cn1cc(Nc2ncc(Cl)c(NC(CO)c3ccccc3Cl)n2)cn1` (centres unmarked) [Compound 117], the IC50 in test [1] was 1000 to 10000 nM; in test [2], less than 100 nM.

For `NC(=O)Cn1cc(Nc2ncc(Cl)c(NC(CO)c3ccccc3Cl)n2)cn1` (centres unmarked) [Compound 118], the half-inhibitory concentration (IC50) in test [1] is 1000 to 10000 nM; in test [2], less than 100 nM.

Consider `OCCn1cc(Nc2ncc(Cl)c(NC(CO)c3cc(F)cc(F)c3)n2)cn1` (centres unmarked) [Compound 122], for which the figures for the concentration for half-maximal inhibition (IC50) in test [1] and in test [2] were 100 to 1000 nM and less than 100 nM, respectively.

As to `CN1CCC(n2cc(Nc3ncc(Cl)c(N[C@H](CO)c4ccccc4)n3)cn2)C1=O` (some centres unmarked) [Compound 135], the results for the IC50 in test [1] and in test [2] were 1000 to 10000 nM and less than 100 nM, respectively.

As to `Cn1cc(Nc2ncc(Cl)c(N[C@H](CO)c3cccc(-c4cnn(C)c4)c3)n2)cn1` [Compound 136], the half-maximal inhibitory concentration (IC50) was not below 10000 nM in test [1] and 100 to 1000 nM in test [2].

With `Cn1cc(-c2cccc([C@@H](CO)Nc3nc(Nc4cnn(CCO)c4)ncc3Cl)c2)cn1` [Compound 151], the 50% inhibitory concentration (IC50) in test [1] was not below 10000 nM; in test [2] it was 100 to 1000 nM.

For `CC(C)n1cc(Nc2ncc(Cl)c(N[C@H](CO)c3cccnc3)n2)cn1` [Compound 107], the IC50 was 1000 to 10000 nM in test [1] and less than 100 nM in test [2].

As to `Cn1cc(Nc2ncc(C(F)(F)F)c(N[C@H](CO)c3ccccc3)n2)cn1` [Compound 6], the IC50 in test [1] was not below 10000 nM; in test [2], less than 100 nM.

`OCCn1cc(Nc2ncc(Cl)c(N[C@H](CO)c3cc(F)cc(F)c3)n2)cn1` [Compound 143]: the IC50 in test [1] is 100 to 1000 nM; in test [2], less than 100 nM.

In the case of `COc1cccc([C@@H](CO)Nc2nc(Nc3cnn(CC(=O)N4CCOCC4)c3)ncc2Cl)c1` [Compound 102], the results for the IC50 in test [1] and in test [2] were not below 10000 nM and less than 100 nM, respectively.

Consider `CNC(=O)Cn1cc(Nc2ncc(F)c(N[C@H](CO)c3ccccc3)n2)cn1` [Compound 111], for which the values for the IC50 in test [1] and in test [2] were not below 10000 nM and less than 100 nM, respectively.

`Cc1cnc(Nc2cnn(C)c2)nc1N[C@H](CO)c1cccc(-c2cnn(C)c2)c1` [Compound 149]: the figures for the 50% inhibitory concentration (IC50) in test [1] and in test [2] were not below 10000 nM and 100 to 1000 nM, respectively.

Turning to `O=C(Cn1cc(Nc2ncc(F)c(N[C@H](CO)c3ccccc3)n2)cn1)N1CCOCC1` [Compound 112], the IC50 in test [1] is not below 10000 nM; in test [2], less than 100 nM.

`CNC(=O)Cn1cc(Nc2ncc(Cl)c(N[C@H](CO)c3ccccc3OC)n2)cn1` [Compound 98]: the IC50 is 1000 to 10000 nM in test [1] and less than 100 nM in test [2].

As to `Cn1cc(Nc2ncc(F)c(N[C@H](CO)c3cc(F)cc(F)c3)n2)cn1` [Compound 158], the IC50 in test [1] was 1000 to 10000 nM; in test [2], less than 100 nM.

On to `CNC(=O)Cn1cc(Nc2ncc(Cl)c(N[C@H](CO)c3cccc(-c4cnn(C)c4)c3)n2)cn1` [Compound 154], for which the IC50 is 1000 to 10000 nM in test [1] and less than 100 nM in test [2].

On to `O=C(Cn1cc(Nc2ncc(Cl)c(N[C@H](CO)c3cccnc3)n2)cn1)N1CCOCC1` [Compound 104], for which the results for the half-inhibitory concentration (IC50) in test [1] and in test [2] were 1000 to 10000 nM and less than 100 nM, respectively.

For `CCn1cc(Nc2ncc(Cl)c(N[C@H](CO)c3cccc(OC)c3)n2)cn1` [Compound 96], the values for the IC50 in test [1] and in test [2] were not below 10000 nM and less than 100 nM, respectively.

Regarding `CNC(=O)Cn1cc(Nc2ncc(F)c(N[C@H](CO)c3cc(F)cc(-c4cnn(C)c4)c3)n2)cn1` [Compound 157], the values for the IC50 in test [1] and in test [2] were not below 10000 nM and 100 to 1000 nM, respectively.

Consider `Cn1cc(-c2cccc(C(CO)Nc3nc(Nc4cnn(CCO)c4)ncc3Cl)c2)cn1` (centres unmarked) [Compound 94], for which the results for the 50% inhibitory concentration (IC50) in test [1] and in test [2] were not below 10000 nM and 100 to 1000 nM, respectively.

As for `CC(C)NC(=O)Cn1cc(Nc2ncc(Cl)c(N[C@H](CO)c3ccccc3F)n2)cn1` [Compound 115], the 50% inhibitory concentration (IC50) in test [1] is 1000 to 10000 nM; in test [2], less than 100 nM.

Turning to `COc1ccccc1[C@@H](CO)Nc1nc(Nc2cnn(CC(=O)N3CCOCC3)c2)ncc1Cl` [Compound 101], the IC50 in test [1] is 1000 to 10000 nM; in test [2], less than 100 nM.

Take `CCC(Nc1nc(Nc2cnn(CC(N)=O)c2)ncc1Cl)c1ccccc1F` (centres unmarked) [Compound 126]: the figures for the IC50 in test [1] and in test [2] were 1000 to 10000 nM and 100 to 1000 nM, respectively.

For `CNC(=O)Cn1cc(Nc2ncc(C)c(N[C@H](CO)c3ccccc3)n2)cn1` [Compound 133], the IC50 in test [1] was 1000 to 10000 nM; in test [2], less than 100 nM.

For the molecule `OCCn1cc(Nc2ncc(F)c(N[C@H](CO)c3cc(F)cc(F)c3)n2)cn1` [Compound 159], the figures for the IC50 in test [1] and in test [2] were 1000 to 10000 nM and less than 100 nM, respectively.
